The source of these data is ChEMBL document CHEMBL1201862, “PubChem BioAssay data set” (2004).

Test systems include HCC 2998; NCI-H226; UACC-257; MOLT-4; UO-31; HCT-15; A498; SK-MEL-2; CAKI-1; SF-539; RXF 393; M14; OVCAR-4; HL-60; 786-0; SN12C; NCI-H460; SR.
What all share (assay): growth of human tumour cells (NCI), 48 h

SMILES strings stand for the structures.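 Cells were grown in 96-well plates and exposed to each compound for 48 hours at five concentrations; endpoints were interpolated linearly between bracketing concentrations, or set to the highest concentration if not reached. GI50 is the concentration that inhibits growth by half.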 Activity calls are given as the source filed them. Cut-off read from the data, not from the text of the source: active = GI50 up to about 1.1 µM and inactive = higher.

With `CCOC(=O)c1ccc(/N=N\c2ccc(N(CCC#N)CCC#N)cc2C)cc1`, the GI50 with HCC 2998 was > 100 µM (inactive); with NCI-H226 it was > 100 µM (inactive); with UACC-257 it was > 100 µM (inactive); in the assay with MOLT-4 it was > 100 µM (inactive); in the assay with UO-31, > 100 µM (inactive); in the assay on HCT-15, above 100 µM. The GI50 is > 100 µM (inactive) in the assay with A498; > 100 µM (inactive) with SK-MEL-2; > 100 µM (inactive) in the assay on CAKI-1; 72.9 µM (inactive) in the assay on SF-539; > 100 µM (inactive) in the assay with RXF 393; > 100 µM (inactive) in the assay on M14. For the same compound, the GI50 was > 100 µM (inactive) in the assay on OVCAR-4, > 100 µM (inactive) with HL-60, 35.6 µM (inactive) in the assay with 786-0 and > 100 µM (inactive) in the assay with SN12C.
`Cc1cccc(C)c1NC(=O)C(=O)C(C(=O)c1ccccc1-c1ccccc1)C1OC(=O)c2ccccc21` (stereo not given): the GI50 with HCC 2998 was 15.1 µM (inactive); in the assay with NCI-H226, 11.6 µM (inactive); with UACC-257 it was 22.6 µM (inactive); in the assay with MOLT-4 it was 18.1 µM (inactive); with UO-31, 25.3 µM (inactive); with A498, 18.7 µM (inactive). The GI50 is 16.2 µM (inactive) in the assay on SK-MEL-2; 27.3 µM (inactive) in the assay with NCI-H460; 14.8 µM (inactive) in the assay with SF-539; 12.8 µM (inactive) with RXF 393; 14.7 µM (inactive) in the assay with M14; 21 µM (inactive) in the assay with HL-60. In addition, the GI50 in the assay with 786-0 is 18.2 µM (inactive).
For `C/C(=N/O)C1CC=C(S(=O)(=O)c2ccccc2)C1` (stereo not given), the GI50 is > 100 µM (inactive) with HCC 2998; > 100 µM (inactive) in the assay with NCI-H226; > 100 µM (inactive) with UACC-257; > 100 µM (inactive) with MOLT-4; > 100 µM (inactive) in the assay on UO-31; above 100 µM in the assay with HCT-15. Moreover, the GI50 in the assay on SR, in the assay on SK-MEL-2, in the assay on NCI-H460, with CAKI-1, in the assay with SF-539 and with RXF 393 was > 100 µM (inactive) each time. For the same compound, the GI50 in the assay with M14, in the assay with OVCAR-4, in the assay with HL-60, in the assay with 786-0 and in the assay on SN12C was > 100 µM (inactive) throughout.
As to `CN(C)c1ccc(C(C#N)NNC(=O)Cc2ccccc2)cc1` (stereo not given), the GI50 was > 100 µM (inactive) in the assay on NCI-H226; > 100 µM (inactive) in the assay with UACC-257; > 100 µM (inactive) in the assay on MOLT-4; > 100 µM (inactive) in the assay with UO-31; above 100 µM with HCT-15; > 100 µM (inactive) in the assay on SR. Besides, the GI50 in the assay on SK-MEL-2, with NCI-H460, in the assay on CAKI-1, in the assay on SF-539, in the assay on RXF 393 and with M14 was > 100 µM (inactive) each time. Also, the GI50 in the assay on OVCAR-4, with HL-60, in the assay with 786-0 and with SN12C was > 100 µM (inactive) each time.
Regarding `CC[N+](CC)(CC)Cc1cn(S(=O)(=O)c2ccccc2)c2ccccc12`, the GI50 with HCC 2998 is > 100 µM (inactive); with NCI-H226 it was > 100 µM (inactive); with UACC-257, > 100 µM (inactive); in the assay on MOLT-4, > 100 µM (inactive); in the assay with UO-31, > 100 µM (inactive); with HCT-15, above 100 µM. Also, the GI50 with SR, in the assay with SK-MEL-2, in the assay with NCI-H460, in the assay on CAKI-1, with SF-539 and in the assay on M14 was > 100 µM (inactive) each time. Moreover, the GI50 in the assay on OVCAR-4, with HL-60 and with 786-0 was > 100 µM (inactive) in each case.
Regarding `CC1(C)[C@H]2CC[C@@]13C(=O)N1C(=O)O[C@@H]([C@H]1Cl)C(Cl)(COCc1ccccc1)C(=O)OCCO[C@H]3C2` (stereo not given in full), the GI50 was 57.3 µM (inactive) with HCC 2998; 48.9 µM (inactive) in the assay on UACC-257; 21 µM (inactive) in the assay on MOLT-4; 96.4 µM (inactive) in the assay with UO-31; 40.8 µM in the assay with HCT-15; > 100 µM (inactive) in the assay with A498. Moreover, the GI50 in the assay with SR was 39.7 µM (inactive); with SK-MEL-2, 85.5 µM (inactive); in the assay with NCI-H460, 53.6 µM (inactive); with CAKI-1, > 100 µM (inactive); with SF-539, > 100 µM (inactive); in the assay on M14 it was 69.2 µM (inactive). The figures for the GI50 in the assay with OVCAR-4, in the assay with HL-60 and in the assay on 786-0 were 40.6 µM (inactive), 35.2 µM (inactive) and 70 µM (inactive), respectively.
With `CC(C)(C)C1CCC2c3c([nH]c4ncccc34)C3C(=O)N(c4ccccc4)C(=O)C3C2C1` (stereo not given), the GI50 with HCC 2998 was > 100 µM (inactive); in the assay on NCI-H226, > 100 µM (inactive); in the assay on UACC-257, > 100 µM (inactive); in the assay with MOLT-4, > 100 µM (inactive); in the assay with UO-31, > 100 µM (inactive); in the assay with HCT-15 it was above 100 µM. The GI50 in the assay on SR was 36.1 µM (inactive); in the assay on SK-MEL-2 it was > 100 µM (inactive); in the assay on NCI-H460 it was > 100 µM (inactive); in the assay on CAKI-1 it was > 100 µM (inactive); in the assay on SF-539 it was > 100 µM (inactive); in the assay with RXF 393 it was > 100 µM (inactive). Besides, the GI50 is > 100 µM (inactive) in the assay on M14; > 100 µM (inactive) in the assay with OVCAR-4; 65.9 µM (inactive) with HL-60; > 100 µM (inactive) with 786-0; 88.1 µM (inactive) with SN12C.
On to `CCCCCCCCCCCCCC/C(C(=O)OC)=C(/O)C(=O)OCC`, for which the GI50 was 19.9 µM (inactive) in the assay with HCC 2998; > 100 µM (inactive) with NCI-H226; 63.5 µM (inactive) with UACC-257; 37.6 µM (inactive) with MOLT-4; 23.6 µM (inactive) in the assay on UO-31; 19.7 µM in the assay on HCT-15. Moreover, the GI50 with A498 is 33.2 µM (inactive); in the assay with SK-MEL-2, 16.6 µM (inactive); with NCI-H460, 37.8 µM (inactive); in the assay on CAKI-1, 31.4 µM (inactive); in the assay with SF-539 it was > 100 µM (inactive); with RXF 393, 99.5 µM (inactive). In addition, the GI50 in the assay on M14 is 20.2 µM (inactive); in the assay with OVCAR-4, 58.9 µM (inactive); in the assay on HL-60 it was > 100 µM (inactive); with 786-0, 19.7 µM (inactive); with SN12C, > 100 µM (inactive).
Take `CC1=NN(c2ccccc2)C(=O)C1/N=N/c1ccc(Br)c(C)c1` (stereo not given): the GI50 was > 100 µM (inactive) in the assay on HCC 2998; > 100 µM (inactive) in the assay on NCI-H226; > 100 µM (inactive) in the assay on UACC-257; 71.3 µM (inactive) in the assay on MOLT-4; above 100 µM with HCT-15; > 100 µM (inactive) in the assay with A498. Besides, the GI50 with SK-MEL-2, with NCI-H460, in the assay on CAKI-1, in the assay with SF-539, in the assay on RXF 393 and with M14 was > 100 µM (inactive) each time. Besides, the GI50 in the assay on OVCAR-4, in the assay with HL-60, in the assay with 786-0 and in the assay with SN12C was > 100 µM (inactive) throughout.
In the case of `O=C1NC2C(CCO)CC=C[C@H]2c2cc3c(cc21)OCO3` (stereo not given in full), the GI50 in the assay with HCC 2998 was > 10 µM (inactive); in the assay on NCI-H226, 75.3 µM (inactive); in the assay with UACC-257, > 100 µM (inactive); in the assay with MOLT-4, > 100 µM (inactive); in the assay with UO-31, > 100 µM (inactive); in the assay with HCT-15, above 100 µM. In addition, the GI50 with SR, in the assay with NCI-H460, in the assay on SF-539, in the assay on RXF 393, in the assay on M14 and in the assay on HL-60 was > 100 µM (inactive) in each case. The GI50 in the assay with 786-0 and in the assay on SN12C was > 100 µM (inactive) in each case.
In the case of `NC1=NCCC1(c1ccccc1)c1ccccn1` (stereo not given), the GI50 with HCC 2998 was > 100 µM (inactive); in the assay with NCI-H226, > 100 µM (inactive); with UACC-257 it was > 100 µM (inactive); with MOLT-4, > 100 µM (inactive); in the assay on HCT-15 it was above 100 µM; in the assay with A498, > 100 µM (inactive). The GI50 in the assay with SK-MEL-2, in the assay with NCI-H460, in the assay with CAKI-1, in the assay on SF-539, in the assay with RXF 393 and with M14 was > 100 µM (inactive) throughout. Besides, the GI50 in the assay with OVCAR-4, in the assay with HL-60, in the assay on 786-0 and in the assay with SN12C was > 100 µM (inactive) each time.
Turning to `NC1=NC2=C(CCCC2)C(c2cccs2)S1` (stereo not given), the GI50 in the assay on HCC 2998 is > 100 µM (inactive); in the assay on UACC-257, 49.7 µM (inactive); in the assay on MOLT-4, 36.8 µM (inactive); with UO-31, 5.43 µM (inactive); in the assay with HCT-15 it was above 100 µM; in the assay with A498 it was 72.6 µM (inactive). Also, the GI50 in the assay with SK-MEL-2 is > 100 µM (inactive); with NCI-H460, > 100 µM (inactive); in the assay on CAKI-1, > 100 µM (inactive); with SF-539, > 100 µM (inactive); with RXF 393 it was 38.5 µM (inactive); in the assay on M14, > 100 µM (inactive). In addition, the GI50 was 86.5 µM (inactive) in the assay on OVCAR-4, 8.73 µM (inactive) with HL-60, 84.5 µM (inactive) with 786-0 and > 100 µM (inactive) in the assay with SN12C.
Regarding `Cc1cccc(NC2=NC(=O)C(CC(=O)Nc3ccc(Cl)cc3C)S2)c1` (stereo not given), the GI50 in the assay with HCC 2998 is > 100 µM (inactive); with NCI-H226, > 100 µM (inactive); in the assay on UACC-257, > 100 µM (inactive); in the assay on MOLT-4, > 100 µM (inactive); in the assay on UO-31 it was > 100 µM (inactive); with HCT-15 it was above 100 µM. The GI50 is 53.8 µM (inactive) with A498; > 100 µM (inactive) with SK-MEL-2; > 100 µM (inactive) in the assay with NCI-H460; > 100 µM (inactive) with CAKI-1; > 100 µM (inactive) in the assay with SF-539; > 100 µM (inactive) in the assay with RXF 393. For the same compound, the GI50 with M14, in the assay on OVCAR-4, in the assay on HL-60, in the assay with 786-0 and with SN12C was > 100 µM (inactive) throughout.
